Data from paper PMC11891622 (Angewandte Chemie (International Ed. in English), 2025).
“Also recorded” adds a separate entry of the source. Read-outs that look alike come from different tables or passages of the source.

Assays:
[1] = tested on: SARS-CoV-2 Nucleocapsid protein NTR (1–248) (NTD plus two flanking IDRs); type: binding; details: for peaks of poly-L region (216–225): 0.25 equiv. of the chimaera
[2] = molecular target: SARS-CoV-2 Nucleocapsid protein N-terminal globular domain NTD (44–180) (Severe acute respiratory syndrome coronavirus 2, UniProt P0DTC9); type: binding

## Ac‐Glu‐Gly‐Glu‐Gly‐Glu‐Gly‐Gly‐Glu‐gggg‐Glu‐Gly‐Gly‐Glu‐Gly‐Glu‐(β‐Ala)‐Glu [P-PNA]
[1]; 70 µM NTR1-248, pH 6.5, 298 K, listed as P‐PNA
  peaks of poly-L region (216–225): several cross peaks disappearing at only 0.25 equiv. of ligand added
[1]; 70 µM NTR1-248, pH 6.5, 298 K, listed as chimaera
  peaks of poly-L region (216–225): disappeared immediately after the addition of only 0.25 equiv. of the chimaera
[1]; CSP at 1 equiv. P-PNA, 70 µM NTR1-248, pH 6.5, 298 K
  major CSPs on the NTD (44–180) region within NTR (1–248): identified once again in the basic finger of NTD (44–180)
[1]; NTR (1–248), comparison with ref [22], [24]
  similarity of affected regions to those with RNA fragments: the regions that are most affected by the interaction are similar to those identified when studying the interaction of NTR (1–248) with RNA fragments
[1]; pH 6.5
  most perturbed residues, IDR2 (181–248) SR-rich region (177–203): the SR‐rich region, which shows the highest CSP values; also recorded: The most perturbed residues are found in the SR‐rich region (177–203
[1]; upon addition of the chimaera, 70 µM NTR1-248, pH 6.5, 298 K
  intensity of NTD (44–180) peaks within NTR (1–248): several peaks of NTD (44–180) decrease in intensity or disappear completely
[2]
  CSP magnitude, chimaera versus peptide P: CSP for the same residues are more pronounced in the case of the chimaera adduct; also recorded: chemical shift perturbation values are clearly higher for the chimeric molecule
  affinity compared with gRNA fragments / oligonucleotides: despite larger, is not significantly distant from those reported in the literature for studies conducted with gRNA fragments; also recorded: lower than that of some oligonucleotides of similar length
  affinity compared with the peptide / chimaera counterpart: superior affinity over the pure peptide precursor; also recorded: higher affinity for an RNA‐binding protein, such as the nucleocapsid protein of SARS‐CoV‐2, compared to a pure designed peptide
[2]; pH 6.5
  CSP pattern: location of most affected residues: predominantly cluster within three main regions, as reported in Figure 2B and 2C, very similar to those identified when interacting with RNA
  exchange regime on the NMR time scale: an interaction taking place in a fast exchange regime on the NMR time scale
